The NIST ThermoML archive (doi:10.1016/j.tca.2015.04.027)
Numbers after ± are expanded uncertainties.

Key:
[1] = 87 kPa, Liquid, Vibrating tube method
[2] = xn = mol fraction of the nth substance listed; conditions: 87 kPa, Liquid, Vibrating tube method

CCOS(=O)(=O)[O-].CCn1cc[n+](C)c1 [1-ethyl-3-methylimidazolium ethyl sulfate]
[1]
Conditions	mass density [kg/m3]
298.15 K	1236.42 ± 1.6
303.15 K	1233.09 ± 1.6
308.15 K	1229.72 ± 1.6
313.15 K	1226.36 ± 1.6
318.15 K	1223 ± 1.6

CCOS(=O)(=O)[O-].CCn1cc[n+](C)c1 [1-ethyl-3-methylimidazolium ethyl sulfate] + C=CCO
[2], x2 = 0
Conditions	mass density [kg/m3]
298.15 K	1236.42 ± 1.6
303.15 K	1233.09 ± 1.6
308.15 K	1229.72 ± 1.6
313.15 K	1226.36 ± 1.6
318.15 K	1223 ± 1.6

CCOS(=O)(=O)[O-].CCn1cc[n+](C)c1 [1-ethyl-3-methylimidazolium ethyl sulfate] + OC(CCl)CCl
[2], x2 = 0
Conditions	mass density [kg/m3]
298.15 K	1236.42 ± 1.6
303.15 K	1233.09 ± 1.6
308.15 K	1229.72 ± 1.6
313.15 K	1226.36 ± 1.6
318.15 K	1223 ± 1.6

C=CCO [2-propenol]
[1]
Conditions	mass density [kg/m3]
298.15 K	850.4 ± 1.2
303.15 K	846.02 ± 1.2
308.15 K	841.59 ± 1.2
313.15 K	837.13 ± 1.2
318.15 K	832.63 ± 1.2

OC(CCl)CCl [1,3-dichloro-2-propanol]
[1]
Conditions	mass density [kg/m3]
298.15 K	1356.46 ± 1.1
303.15 K	1350.55 ± 1.1
308.15 K	1344.61 ± 1.1
313.15 K	1338.56 ± 1.1
318.15 K	1332.47 ± 1.1

OC(CCl)CCl [1,3-dichloro-2-propanol] + CCOS(=O)(=O)[O-].CCn1cc[n+](C)c1
mass density [kg/m3], [2]
Conditions	298.15 K	303.15 K	308.15 K	313.15 K	318.15 K
x1 = 0.0638	1239 ± 1.6	1235.7 ± 1.5	1232.4 ± 1.5	1229 ± 1.5	1225.55 ± 1.5
x1 = 0.1199	1241.65 ± 1.5	1238.3 ± 1.5	1234.9 ± 1.5	1231.6 ± 1.5	1228.1 ± 1.5
x1 = 0.2073	1246.7 ± 1.4	1243.39 ± 1.4	1239.87 ± 1.4	1236.36 ± 1.4	1232.86 ± 1.4
x1 = 0.2973	1252.5 ± 1.4	1249.05 ± 1.4	1245.5 ± 1.4	1241.9 ± 1.4	1238.2 ± 1.4
x1 = 0.3964	1259.8 ± 1.3	1256.2 ± 1.3	1252.5 ± 1.3	1248.7 ± 1.3	1245.1 ± 1.3
x1 = 0.505	1269.3 ± 1.3	1265.55 ± 1.3	1261.5 ± 1.3	1257.6 ± 1.3	1253.9 ± 1.3
x1 = 0.6616	1286.79 ± 1.2	1282.36 ± 1.2	1278.15 ± 1.2	1274 ± 1.2	1270 ± 1.2
x1 = 0.7527	1300 ± 1.2	1295.49 ± 1.2	1291.17 ± 1.2	1286.8 ± 1.2	1282.3 ± 1.2
x1 = 0.8236	1313 ± 1.2	1308.44 ± 1.2	1304 ± 1.2	1299.5 ± 1.2	1294.6 ± 1.2
x1 = 0.9012	1329.59 ± 1.2	1324.72 ± 1.1	1319.69 ± 1.1	1314.64 ± 1.1	1309.58 ± 1.1
x1 = 0.9645	1346 ± 1.1	1340.45 ± 1.1	1335.3 ± 1.1	1329.4 ± 1.1	1323.7 ± 1.1
x1 = 1	1356.46 ± 1.1	1350.55 ± 1.1	1344.61 ± 1.1	1338.56 ± 1.1	1332.47 ± 1.1

C=CCO [2-propenol] + OC(CCl)CCl
[2], x2 = 0
Conditions	mass density [kg/m3]
298.15 K	850.4 ± 1.2
303.15 K	846.02 ± 1.2
308.15 K	841.59 ± 1.2
313.15 K	837.13 ± 1.2
318.15 K	832.63 ± 1.2

C=CCO [2-propenol] + CCOS(=O)(=O)[O-].CCn1cc[n+](C)c1
mass density [kg/m3], [2]
Conditions	298.15 K	303.15 K	308.15 K	313.15 K	318.15 K
x1 = 0.0988	1223.65 ± 1.6	1220.28 ± 1.6	1216.87 ± 1.6	1213.47 ± 1.6	1210.09 ± 1.6
x1 = 0.1811	1211.14 ± 1.6	1207.72 ± 1.6	1204.27 ± 1.6	1200.85 ± 1.5	1197.44 ± 1.5
x1 = 0.2833	1193.07 ± 1.5	1189.54 ± 1.5	1186.02 ± 1.5	1182.52 ± 1.5	1179.15 ± 1.5
x1 = 0.4107	1165.72 ± 1.5	1162.19 ± 1.5	1158.64 ± 1.5	1155.11 ± 1.5	1151.59 ± 1.5
x1 = 0.4939	1143.57 ± 1.4	1140.1 ± 1.4	1136.5 ± 1.4	1133 ± 1.4	1129.55 ± 1.4
x1 = 0.5909	1112.3 ± 1.4	1109.47 ± 1.4	1105.88 ± 1.4	1102.21 ± 1.4	1098.55 ± 1.4
x1 = 0.7086	1064.08 ± 1.4	1061.4 ± 1.4	1058 ± 1.4	1054.02 ± 1.3	1049.98 ± 1.4
x1 = 0.8066	1012 ± 1.3	1009.5 ± 1.3	1005.8 ± 1.3	1001.87 ± 1.3	997.66 ± 1.3
x1 = 0.9057	942.5 ± 1.3	939.58 ± 1.3	935.46 ± 1.3	931.33 ± 1.3	927.19 ± 1.3
x1 = 0.9835	869.29 ± 1.3	865.2 ± 1.3	860.9 ± 1.3	856.62 ± 1.3	852.28 ± 1.3
x1 = 1	850.4 ± 1.2	846.02 ± 1.2	841.59 ± 1.2	837.13 ± 1.2	832.63 ± 1.2

OC(CCl)CCl [1,3-dichloro-2-propanol] + C=CCO
mass density [kg/m3], [2]
Conditions	298.15 K	303.15 K	308.15 K	313.15 K	318.15 K
x1 = 0.0927	914.27 ± 1.2	909.73 ± 1.2	905.11 ± 1.2	900.45 ± 1.2	895.75 ± 1.2
x1 = 0.1927	978.2 ± 1.2	973.46 ± 1.2	968.64 ± 1.2	963.78 ± 1.2	958.88 ± 1.2
x1 = 0.2704	1024.81 ± 1.2	1019.93 ± 1.2	1014.97 ± 1.2	1009.97 ± 1.2	1004.93 ± 1.2
x1 = 0.3548	1072.33 ± 1.2	1067.35 ± 1.2	1062.2 ± 1.2	1057.06 ± 1.2	1051.87 ± 1.2
x1 = 0.4555	1125.39 ± 1.2	1120.22 ± 1.2	1114.94 ± 1.2	1109.64 ± 1.2	1104.29 ± 1.2
x1 = 0.4973	1146.3 ± 1.2	1141.05 ± 1.2	1135.75 ± 1.2	1130.35 ± 1.2	1124.95 ± 1.2
x1 = 0.6062	1198.1 ± 1.2	1192.65 ± 1.2	1187.2 ± 1.2	1181.65 ± 1.2	1176.1 ± 1.2
x1 = 0.7166	1246.88 ± 1.2	1241.35 ± 1.2	1235.7 ± 1.2	1230.01 ± 1.2	1224.28 ± 1.2
x1 = 0.8004	1281.46 ± 1.2	1275.78 ± 1.2	1270 ± 1.2	1264.19 ± 1.2	1258.35 ± 1.2
x1 = 0.8893	1316.06 ± 1.2	1310.26 ± 1.2	1304.41 ± 1.2	1298.46 ± 1.2	1292.49 ± 1.2
x1 = 0.9452	1336.81 ± 1.1	1330.96 ± 1.1	1325.07 ± 1.1	1319.07 ± 1.1	1313.05 ± 1.1
x1 = 1	1356.46 ± 1.1	1350.55 ± 1.1	1344.61 ± 1.1	1338.56 ± 1.1	1332.47 ± 1.1
